Test results taken from US20230340018A1, “MPRO CYSTEINE PROTEASE INHIBITORS” (ANIXA BIOSCIENCES, INC., priority 2020, published 2023).

Assays:
in vitro = settings: human
[1] = target: SARS-CoV-2 main protease Mpro (Severe acute respiratory syndrome coronavirus 2, UniProt P0DTD1); assay: FRET-based Mpro enzyme activity assay; assay type: biochemical; settings: recombinant Mpro, 30 min pre-incubation, 0 - 200 µM; read-out: Mpro enzyme inhibition IC50

Row | Structure (SMILES) | CC50 at 72 h (in vitro) [µM] | IC50 [1] [µM]
1 | COc1cccc2[nH]c(C(=O)N[C@@H](CC(C)C)C(=O)N[C@@H](CN3CCNC3=O)C(=O)C(=O)NCC3CC3)cc12 [Compound 10, N-((S)-1-(((S)-4-((Cyclopropylmethyl)Amino)-3,4-Dioxo-1-(2-Oxoimidazolidin-1-yl)Butan-2-yl)Amino)-4-Methyl-1-Oxopentan-2-yl)-4-Methoxy-1H-Indole-2-Carboxamide] | > 100 | ≤ 2
2 | COc1cccc2[nH]c(C(=O)N[C@@H](CC3CC3)C(=O)N[C@@H](CN3CCNC3=O)C(=O)C(=O)NCC3CC3)cc12 [Compound 12, N-((S)-3-Cyclopropyl-1-(((S)-4-((cyclopropylmethyl)amino)-3,4-dioxo-1-(2-oxoimidazolidin-1-yl)butan-2-yl)amino)-1-oxopropan-2-yl)-4-methoxy-1H-indole-2-carboxamide] | > 100 | ≤ 2
3 | CC(C)C[C@H](NC(=O)c1cc2ccccc2[nH]1)C(=O)N[C@@H](Cc1ccc[nH]c1=O)C(=O)C(=O)NCc1ccccc1 [Compound 22, N-((S)-1-(((S)-4-(Benzylamino)-3,4-Dioxo-1-(2-Oxo-1,2-Dihydropyridin-3-yl)Butan-2-yl)Amino)-4-Methyl-1-Oxopentan-2-yl)-1H-Indole-2-Carboxamide] | > 100 | ≤ 2
4 | CC(C)C[C@H](NC(=O)c1nc2ccccc2[nH]1)C(=O)N[C@@H](Cc1ccc[nH]c1=O)C(=O)C(=O)NCc1ccccc1 [Compound 23, N-((S)-1-(((S)-4-(benzylamino)-3,4-dioxo-1-(2-oxo-1,2-dihydropyridin-3-yl)butan-2-yl)amino)-4-methyl-1-oxopentan-2-yl)-1H-benzo[d]imidazole-2-carboxamide] | > 100 | ≤ 2
5 | CC(C)C[C@H](NC(=O)c1cc2ccccc2[nH]1)C(=O)N[C@@H](CN1CCNC1=O)C(=O)C(=O)NCC1CC1 [Compound 24, N-((S)-1-(((S)-4-((cyclopropylmethyl)amino)-3,4-dioxo-1-(2-oxoimidazolidin-1-yl)butan-2-yl)amino)-4-methyl-1-oxopentan-2-yl)-1H-indole-2-carboxamide] | > 100 | 2 to 20
6 | COc1cccc2[nH]c(C(=O)N[C@H](C(=O)N[C@@H](CN3CCNC3=O)C(=O)C(=O)Nc3ccccc3)C3CCCCC3)cc12 [Compound 25, N-((S)-1-cyclohexyl-2-(((S)-3,4-dioxo-1-(2-oxoimidazolidin-1-yl)-4-(phenylamino)butan-2-yl)amino)-2-oxoethyl)-4-methoxy-1H-indole-2-carboxamide] | > 100 | ≤ 2
7 | CC(C)C[C@H](NC(=O)c1cc2ccccc2[nH]1)C(=O)N[C@@H](CN1CCNC1=O)C(O)C(=O)NCC1CC1 (stereo partly drawn) [Compound 26, N-((2S)-1-(((2S)-4-((cyclopropylmethyl)amino)-3-hydroxy-4-oxo-1-(2-oxoimidazolidin-1-yl)butan-2-yl)amino)-4-methyl-1-oxopentan-2-yl)-1H-indole-2-carboxamide] | > 100 | ≤ 2
8 | CC(C)C[C@H](NC(=O)OC(C)(C)C)C(=O)N[C@@H](Cc1ccc[nH]c1=O)C(=O)C(=O)NCc1ccccc1 [Compound 27, tert-butyl ((S)-1-(((S)-4-(benzylamino)-3,4-dioxo-1-(2-oxo-1,2-dihydropyridin-3-yl)butan-2-yl)amino)-4-methyl-1-oxopentan-2-yl)carbamate] | > 100 | 2 to 20
